Data: patent US9115159B2, “Phosphate compounds, a process for their preparation and pharmaceutical compositions containing them” (LES LABORATOIRES SERVIER, priority 2013, dated 2015)
Values joined by “and” are separate entries in the source; they are usually repeats but may differ in a detail not shown here. Equal values may be shown once.

Assays:
human Caco-2 cells = test: In vitro test on human Caco-2 cells, cellular transport A to B; assay type: in vitro ADME; details: prodrug incubated, 120 minutes; for Yield (experiment yield), the drug after incubation of the prodrug / Fabs (predicted absorbed fraction in humans), the drug after incubation of the prodrug: corresponding drug measured; for Fabs (predicted absorbed fraction in humans), the drug after incubation of the prodrug: 1 or 3 μM; for Yield (experiment yield), compound measured: the prodrug itself: total amount found at the end versus incubated
Description: The cellular transport from A to B (Apical to Basolateral) of the phosphate compounds of formula (I) and the compounds of formula (I′) (corresponding drugs) is studied in human Caco-2 cells. Each compound is deposited apically at 1 or 3 μM (in duplicate) and then incubated for 120 minutes.
Several samples are taken during the experiment; • apically: immediately after deposition (t=0) and at 120 minutes • basolaterally: at the end of the experiment (120 minutes)
The concentrations of the phosphate compound (prodrug) and/or of its hydroxylated homologue (drug) are determined by liquid chromatography coupled with mass spectrometric detection (LC-MS/MS). The limit of quantification for both entities is 2 ng/mL.
The apparent permeability (Papp) and the predicted absorbed fraction (Fabs) in humans are calculated for the prodrug, for the drug after incubation of the prodrug and for the drug after incubation of the drug (Hubatsch et al, Nat Protoc. 2007; 2(9), 2111-2119).
The experiment yield, which corresponds to the ratio (in percent) of the total amount of compound found at the end of the experiment versus that incubated, is also calculated.

Solubility in water = assay type: physicochemical
Description: The solubility of compounds of formula (I) in water was measured and compared with that of compounds of formula (I′).
More specifically, 4-[{[3-(6-{[(3S)-3-(morpholin-4-ylmethyl)-3,4-dihydroisoquinolin-2(1H)-yl]carbonyl}-1,3-benzodioxol-5-yl)-5,6,7,8-tetrahydroindolizin-1-yl]carbonyl}-(phenyl)amino]phenyl disodium phosphate (also referred to as the compound of Example 1) was tested and compared to N-(4-hydroxyphenyl)-3-{6-[((3S)-3-(4-morpholinylmethyl)-3,4-dihydro-2(1H)-isoquinolinyl)carbonyl]-1,3-benzodioxol-5-yl}-N-phenyl-5,6,7,8-tetrahydro-1-indolizine carboxamide (also referred to as the drug from Example 1).
(§1) The solubilities of the compounds were also measured in a medium buffered to physiological pH (cf. Table 3).

[1] = Solubility in aqueous medium buffered to physiological pH (phosphate 0.33M, pH 7.4); assay type: physicochemical; details: phosphate 0.33M, pH = 7.4
Description: as §1

[2] = test system: cleaved (activated) form of caspase 3; test: Quantification of the cleaved form of caspase 3 in vivo (MSD ELISA, RS4;11 xenograft tumour lysates); set-up: species or system mice (SCID strain); details: sampling time 2 hours, treated versus control mice
Description: The ability of the compounds of formula (I′) to activate caspase 3 is evaluated in a xenograft model of RS4;11 leukaemia cells.
1×10^7 RS4;11 cells are grafted sub-cutaneously into immunosuppressed mice (SCID strain). 25 to 30 days after the graft, the animals are treated orally with the various compounds. After treatment, the tumour masses are recovered and lysed, and the cleaved (activated) form of caspase 3 is quantified in the tumour lysates.
The quantification is carried out using the “Meso Scale Discovery (MSD) ELISA platform” test, which specifically assays the cleaved form of caspase 3. It is expressed in the form of an activation factor corresponding to the ratio between the quantity of cleaved caspase 3 in the treated mice divided by the quantity of cleaved caspase 3 in the control mice.
The ability of the compounds of formula (I) to activate caspase 3 is evaluated in a xenograft model of RS4;11 leukaemia cells in accordance with the protocol given in Example A2.

[3] = Pharmacokinetic profile / in vivo conversion after oral administration to SCID mice (plasma, LC-MS/MS); set-up: species or system female SCID mice
Description: The pharmacokinetic profile of the phosphate compounds of formula (I) is evaluated in a lipid formulation and in aqueous solution in female SCID mice. This is compared to the pharmacokinetic profile of compounds of formula (I′) in a lipid formulation. More specifically, 4-[{[3-(6-{[(3S)-3-(morpholin-4-ylmethyl)-3,4-dihydroisoquinolin-2(1H)-yl]-carbonyl}-1,3-benzodioxol-5-yl)-5,6,7,8-tetrahydroindolizin-1-yl]carbonyl}(phenyl)-amino]phenyl disodium phosphate (also referred to as the compound of Example 1) was tested and compared to N-(4-hydroxyphenyl)-3-{6-[((3S)-3-(4-morpholinylmethyl)-3,4-dihydro-2(1H)-isoquinolinyl)carbonyl]-1,3-benzodioxol-5-yl}-N-phenyl-5,6,7,8-tetrahydro-1-indolizine carboxamide (also referred to as the drug from Example 1).
The compound of Example 1 is prepared in a mixture of anhydrous ethanol/polyethylene glycol 300/water (10/40/50, v/v/v) intended for administration by the p.o. route. The study is carried out in 2 groups of SCID mice to which the compound of Example 1 is administered under the following conditions: • Group 1: 3 mg/kg p.o. (gavage, 10 mL/kg), • Group 2: 25 mg/kg p.o. (gavage, 10 mL/kg).
Blood samples are taken at the following points in time (3 samples per animal and 3 animals for each point in time): 0.25 hr, 0.5 hr, 1 hr, 2 hrs, 6 hrs and 24 hrs after oral administration.
The compound of Example 1 is also administered by the oral route in an aqueous medium to SCID mice, under the following conditions: • Group 1: 30 mg/kg p.o. dissolved in 1 mM sodium carbonate solution (gavage, 10 mL/kg), • Group 2: 100 mg/kg p.o. in water (gavage, 10 mL/kg).
Blood samples are taken at the following points in time (3 animals for each point in time and 1 sample per animal): 0.25 hr, 0.5 hr, 1 hr, 2 hrs, 4 hrs, 6 hrs and 24 hrs after oral administration.
For all formulations of the compound of Example 1, the blood thereby collected is centrifuged and the plasma is transferred to tubes containing 1M hydrochloric acid. The plasma concentrations of the phosphate compound (prodrug) and its hydroxylated homologue (drug) are determined simultaneously using a method of liquid chromatography coupled with mass spectrometric detection (TFC-LC-MS/MS). The limit of detection for both entities is 0.5 ng/mL.
The drug from Example 1 is prepared in a mixture of anhydrous ethanol/polyethylene glycol 300/water (10/40/50, v/v/v) intended for administration by the p.o. route. The study is carried out in several groups of SCID mice to which the drug from Example 1 is administered under the following conditions: • Group 1: 3 mg/kg p.o. (gavage, 10 mL/kg), • Group 2: 30 mg/kg p.o. (gavage, 10 mL/kg), • Group 3: 25 mg/kg p.o. (gavage, 10 mL/kg), • Group 4: 100 mg/kg p.o. (gavage, 10 mL/kg).
Blood samples are taken at the following points in time (3 animals for each point in time and 3 samples per animal for Groups 1-2 and 1 sample per animal for Groups 3 and 4): • p.o.: before administration and then 0.25 hr, 0.5 hr, 0.75 hr, 1 hr, 2 hrs, 4 hrs, 6 hrs, 8 hrs, 16 hrs and 24 hrs after oral administration at 3 and 30 mg/kg, • p.o.: 0.5 hr, 2 hrs, 6 hrs, 16 hrs and 24 hrs after oral administration at 25 mg/kg and 0.5 hr, 1 hr, 2 hrs, 6 hrs, 16 hrs, 30 hrs and 48 hrs after oral administration at 100 mg/kg.
The plasma from the blood samples collected after administration of the lipid formulations of the drug from the compound of Example 1 are analysed by liquid chromatography coupled with mass spectrometric detection. The limit of quantification of the drug from the compound of Example 1 is less than or equal to 0.5 ng/mL.
Non-compartmental pharmacokinetic analysis is carried out on the mean values of the plasma concentrations of the compounds tested. […]

[4] = Example 1 administered 3 mg/kg p.o., lipid formulation
[5] = Example 1 administered 25 mg/kg p.o., lipid formulation
[6] = Example 1 administered 30 mg/kg p.o., aqueous formulation (1 mM sodium carbonate solution)
[7] = Example 1 administered 100 mg/kg p.o., aqueous formulation (in water)

O=C(c1cc(-c2cc3c(cc2C(=O)N2Cc4ccccc4C[C@H]2CN2CCOCC2)OCO3)n2c1CCCC2)N(c1ccccc1)c1ccc(OP(=O)([O-])[O-])cc1.[Na+].[Na+] [Example 1, 4-[{[3-(6-{[(3S)-3-(Morpholin-4-ylmethyl)-3,4-dihydroisoquinolin-2(1H)-yl]carbonyl}-1,3-benzodioxol-5-yl)-5,6,7,8-tetrahydroindolizin-1-yl]carbonyl}(phenyl)amino]phenyl disodium phosphate]
Yield (experiment yield), the drug after incubation of the prodrug (human Caco-2 cells): Yield (%) = 42
Fabs (predicted absorbed fraction in humans), the drug after incubation of the prodrug (human Caco-2 cells; A to B): Fabs (%) = 71
Papp, compound measured: the prodrug itself (human Caco-2 cells; A to B, deposited apically at 1 or 3 μM): Papp (10^−6 cm/s) = 0.01
Yield (experiment yield), compound measured: the prodrug itself (human Caco-2 cells): Yield (%) = 0
solubility in water (Solubility in water): greater than or equal to 10 mg/mL and ≥ 12.6 mM
Solubility at 10 μM ([1]; 10 μM): Soluble
Solubility at 20 μM ([1]; 20 μM): Soluble
Solubility at 50 μM ([1]; 50 μM): Soluble
Solubility at 100 μM ([1]; 100 μM): Soluble
Activation factor +/− S.E.M. ([2]; Table 2, 50 mg/kg oral): 21.2 +/− 1.3
AUCt, compound measured: Example 1 [3, 4]: AUCt (ng · h/mL) = 5
Tmax, compound measured: Example 1 [3, 4]: Tmax (h) = 0.25
Cmax, compound measured: Example 1 ([3]; Example 1 administered 3 mg/kg p.o., lipid formulation (ethanol/PEG 300/water 10/40/50)): Cmax (ng/mL) = 16
AUCt, compound measured: Example 1 [3, 5]: AUCt (ng · h/mL) = 92
Cmax, compound measured: Example 1 [3, 5]: Cmax (ng/mL) = 244
Tmax, compound measured: Example 1 [3, 5]: Tmax (h) = 0.25
AUCt, compound measured: Example 1 [3, 6]: AUCt (ng · h/mL) = 879
Cmax, compound measured: Example 1 [3, 6]: Cmax (ng/mL) = 391
Tmax, compound measured: Example 1 [3, 6]: Tmax (h) = 1.0
AUCt, compound measured: Example 1 [3, 7]: AUCt (ng · h/mL) = 797
Cmax, compound measured: Example 1 [3, 7]: Cmax (ng/mL) = 359
Tmax, compound measured: Example 1 [3, 7]: Tmax (h) = 2.0

Cc1c(C(=O)N(c2ccc(OP(=O)([O-])[O-])cc2)c2cnn(C)c2)cc(-c2cc(F)ccc2C(=O)N2Cc3ccccc3C[C@H]2CN2CCOCC2)n1C.[Na+].[Na+] [Example 15, 4-[{[5-(5-Fluoro-2-{[(3S)-3-(morpholin-4-ylmethyl)-3,4-dihydroisoquinolin-2(1H)-yl]carbonyl}phenyl)-1,2-dimethyl-1H-pyrrol-3-yl]carbonyl}(1-methyl-1H-pyrazol-4-yl)amino]phenyl disodium phosphate]
Activation factor +/− S.E.M. ([2]; Table 2, 25 mg/kg oral): 12.1 +/− 1.1

Cc1c(C(=O)N(c2ccc(OP(=O)([O-])[O-])cc2)c2cc(C#N)n(C)c2)cc(-c2cc(Cl)ccc2C(=O)N2Cc3ccccc3C[C@H]2CN2CCOCC2)n1C.[Na+].[Na+] [Example 21, 4-[{[5-(5-Chloro-2-{[(3S)-3-(morpholin-4-ylmethyl)-3,4-dihydroisoquinolin-2(1H)-yl]carbonyl}phenyl)-1,2-dimethyl-1H-pyrrol-3-yl]carbonyl}(5-cyano-1-methyl-1H-pyrrol-3-yl)amino]phenyl disodium phosphate]
Yield (experiment yield), the drug after incubation of the prodrug (human Caco-2 cells): Yield (%) = 100
Fabs (predicted absorbed fraction in humans), the drug after incubation of the prodrug (human Caco-2 cells; A to B): Fabs (%) = 19
Yield (experiment yield), compound measured: the prodrug itself (human Caco-2 cells): Yield (%) = 0.83
Activation factor +/− S.E.M. ([2]; Table 2, 25 mg/kg oral): 55.2 +/− 6.2

Cc1c(C(=O)N(c2ccc(OP(=O)([O-])[O-])cc2)c2cnn(C)c2)cc(-c2cc(Cl)ccc2C(=O)N2Cc3ccccc3C[C@H]2CN2CCOCC2)n1C.[Na+].[Na+] [Example 24, 4-[{[5-(5-Chloro-2-{[(3S)-3-(morpholin-4-ylmethyl)-3,4-dihydroisoquinolin-2(1H)-yl]carbonyl}phenyl)-1,2-dimethyl-1H-pyrrol-3-yl]carbonyl}(1-methyl-1H-pyrazol-4-yl)amino]phenyl disodium phosphate]
Activation factor +/− S.E.M. ([2]; Table 2, 25 mg/kg oral): 60.5 +/− 4.5
